Measurements from PMC8065691, “Polymerizable Matrix Metalloproteinases’ Inhibitors with Potential Application for Dental Restorations” (Biomedicines, 2021).

How the values were obtained:
NIH/3T3 fibroblast cells = assay: Cytotoxicity study using MTT assay, NIH/3T3; type: cell-based, mouse; conditions: NIH/3T3 cells, 50 and 100 µM
Protocol: (§1) Two cell lines, fibroblastic cells NIH/3T3 from mouse embryo (93061524) obtained from Health Protection Agency Culture Collections and supplied by Sigma and MG-63 osteoblast-like cells from human osteosarcoma (ATCC® CRL-1427^TM) were used for cytotoxicity studies. Defrosting and handling of cell lines was carried out according to supplier information.
(§2) The NIH/3T3 cells were grown in Dulbecco’s Modified Eagle Medium (DMEM, Sigma) supplemented with 10% calf bovine serum (Sigma) and 1% Penicillin-Streptomycin solution: 10,000 U/mL penicillin, 10 mg/mL streptomycin, Sigma) and 2.5 mg/L amphotericin B (fungizone, Sigma). MG-63 cells were grown in Eagle’s Minimum Essential Medium (EMEM, Sigma) supplemented with 10% fetal bovine serum and 1% of antibiotics and 2.5 mg/L antimycotics solutions.
(§3) Extracts from each compound A, B or C were prepared by spreading 20 μL of a solution with 20 μM, 50 μM or 100 μM of each compound in a glass petri dish, allowed to dry, and incubated at 37 °C under humidified 5% CO2 for 24 h with 10 mL of the corresponding growth medium according to ISO 10993–12: 2012.
(§4) The cytotoxicity assay was performed as follows: 1 × 10^4 cells per well, from passages 8 to 12, were seeded in 96-well plates (eight replicates) and incubated at 37 °C under humidified 5% CO2 for 24 h. After proliferation, the cell medium was replaced by 200 μL of each extract and incubated under the same conditions for 24 h. As positive control cells were grown in their medium containing 7.5% DMSO (Sigma) and as negative control cells proliferated in medium without any toxic corresponding to 100% cell viability. MTT assays were performed as previously described. Briefly, extracts or medium were removed, an MTT solution (0.5 mg/mL prepared in serum-free medium, Sigma) was added to each well and cells were incubated for additional 3 h. After that, a solution containing 0.1% IGEPAL (Merck), 4 mM HCl (Sigma) in isopropanol (Sigma) was used to dissolve formazan. Plates were incubated with agitation for one hour and absorbance was read at 595 nm with a microplate reader (Bio-Rad®, Hercules, California, USA).

[1] = Cytotoxicity study using MTT assay, NIH/3T3; type: cell-based, mouse; conditions: mouse, NIH/3T3 fibroblast cells, extract, 24 h, MTT, mean, read-out: Cell Viability (%) NIH/3T3 M; for viability at 24 h, 20 µM (stock): NIH/3T3, inhibitor concentration 20 μM; for viability at 24 h, 50 µM (stock): NIH/3T3, inhibitor concentration 50 µM; for viability at 24 h, 100 µM (stock): NIH/3T3, inhibitor concentration 100 µM
Protocol: as §1, §2, §3, §4

MMPs = assay: Preliminary biochemical tests (not shown); conditions: data not shown, most MMPs
Excerpt: However, there were additional interactions between the compounds and the enzyme depending on the enzyme class (collagenases and gelatinases) (See Appendix B, Appendix C, Appendix D and Appendix E).

[2] = Cytotoxicity study using MTT assay, MG-63; type: cell-based; conditions: human, MG-63 osteoblast-like cells, extract, mean, read-out: Cell Viability (%) MG-63 M; for viability at 24 h, 20 µM (stock): MG-63, inhibitor concentration 20 μM; for viability at 24 h, 50 µM (stock): MG-63, inhibitor concentration 50 µM; for viability at 24 h, 100 µM (stock): MG-63, inhibitor concentration 100 µM
Protocol: as §1, §2, §3, §4

Structure (SMILES)	toxicity according to ISO 10993–5: 2009 (viable cells decreased more than 30%) (NIH/3T3 fibroblast cells)	viability at 24 h, 20 µM (stock) [1] [%]	viability at 24 h, 50 µM (stock) [1] [%]	viability at 24 h, 100 µM (stock) [1] [%]	MMP activity reduction (MMPs)	viability at 24 h, 20 µM (stock) [2] [%]	viability at 24 h, 50 µM (stock) [2] [%]	viability at 24 h, 100 µM (stock) [2] [%]
C=C(C)C(=O)OCCCCCOc1ccc(-c2ccc(C#N)cc2)cc1 [Compound B, 5-((4′-cyano-[1,1′-biphenyl]-4-yl)oxy)pentyl methacrylate]	toxic	78.6	50.5	40.5	encouraging indications on activity reduction	78.1	70.3	65.9
C=C(C)C(=O)Oc1ccc(-c2ccc(C#N)cc2)cc1 [Compound A, 4′-cyano-[1,1′-bihenyl]-4-yl methacrylate]	toxic	85.1	54.2	45.5	encouraging indications on activity reduction	82.6	73.6	73
C=C(C)C(=O)Nc1ccc(Oc2ccc(NC(=O)C(=C)C)cc2)cc1 [Compound C, N,N′-(oxybis(4,1-phenylene))bis(2-methylacrylamide)]	toxic	83.7	46.4	42.4	encouraging indications on activity reduction	85	65.8	69.2
